According to patent publication US10222368B2 (priority 2012, dated 2019):

Assays:
[1] = biological target: T1, α7nAChR-FLNA association (Rattus norvegicus, UniProt A0A8I5ZV49); assay: Rat frontal cortical synaptosomes treated with Aβ42, anti-FLNA immunoprecipitation / Western blot; assay type: cell-based; details: 0.1 or 1 nM compound, simultaneously with or 10 min prior to Aβ42
T1 construct: from tissue; host or cells: rat frontal cortical synaptosomes
Excerpt: The α7nAChR-FLNA complexes in the solubilized synaptosomes were immunoprecipitated with immobilized anti-FLNA and the α7nAChR and FLNA levels in the anti-FLNA immunoprecipitates determined by Western blotting (FIG. 14A) and quantified by densitometry for illustrative compounds (FIG. 14B). n=3. […] The letter designation “M” that accompanies many of the “C-series” compounds is omitted from FIG. 14, the remaining figures and most discussions of the figures and compounds hereinafter for ease in expression. Structural formulas of the compounds used in this and the other figures are provided hereinafter.
The complexes in the solubilized synaptosomes, and α7nAChR, TLR4 and FLNA levels in the anti-FLNA immunoprecipitates were determined by Western blotting (FIG. 15A) in which numerals outside of and to the left of the blots are as discussed before. Amounts present in the blots were quantified by densitometry (FIG. 15B). […] Structural formulas of the compounds used in this and the other figures are provided hereinafter.

[2] = biological target: FLNA pentapeptide VAKGL (SEQ ID NO: 1) (Homo sapiens, UniProt P21333); assay: FITC-NLX-based FLNA screening assay; assay type: binding; details: for inhibition at 0.0001 µM: 0.1 nM compound; for inhibition at 0.0001 µM / inhibition at 0.001 µM / inhibition at 0.01 µM / inhibition at 0.1 µM / inhibition at 1 µM: 100 nM frozen-stored FITC-NLX, average of two runs, read-out: Percent inhibition of FITC-NLX binding, preliminary study; for inhibition at 0.001 µM: 1 nM compound; for inhibition at 0.01 µM: 10 nM compound; for inhibition at 0.1 µM: 100 nM compound; for inhibition at 1 µM: 1 μM compound
[3] = biological target: T2, mu opiate receptor (MOR) (Rattus norvegicus, UniProt P33535); assay: MOR agonist activity using [35S]GTPγS binding assay in striatal membranes; assay type: biochemical; details: for MOR agonist activity ([35S]GTPγS binding to Gαo), preliminary study: average of two runs; for MOR agonist activity, [35S]GTPγS binding, FLNA-binding compound as agonist at 0.1 μM / MOR agonist activity, [35S]GTPγS binding, 1 μM + BFNA / MOR agonist activity, [35S]GTPγS binding, FLNA-binding compound as agonist at 1 μM: striatal membranes; for MOR agonist activity, [35S]GTPγS binding, FLNA-binding compound as agonist at 0.1 μM / MOR agonist activity, [35S]GTPγS binding, FLNA-binding compound as agonist at 1 μM: Series C-2; for MOR agonist activity, [35S]GTPγS binding, 1 μM + BFNA: 1 μM compound + 1 μM β-FNA (MOR antagonist)
T2 construct: from tissue; host or cells: striatal tissue (membrane preparation)
T2 sequence (P33535 whole entry): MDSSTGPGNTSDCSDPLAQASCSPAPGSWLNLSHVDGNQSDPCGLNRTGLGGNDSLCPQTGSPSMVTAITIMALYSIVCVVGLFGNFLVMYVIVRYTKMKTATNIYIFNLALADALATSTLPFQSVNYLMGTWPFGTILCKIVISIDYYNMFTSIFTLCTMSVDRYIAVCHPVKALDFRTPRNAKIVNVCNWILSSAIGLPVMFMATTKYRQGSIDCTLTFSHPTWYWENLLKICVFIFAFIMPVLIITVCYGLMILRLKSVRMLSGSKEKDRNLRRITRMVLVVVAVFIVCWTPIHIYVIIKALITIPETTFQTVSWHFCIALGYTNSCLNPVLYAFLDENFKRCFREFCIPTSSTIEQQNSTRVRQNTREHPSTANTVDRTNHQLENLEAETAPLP
Experimental: To assess the mu opiate receptor (MOR) agonist activity of positive compounds from the FLNA screening, compounds were tested in a [^35S]GTPγS binding assay using striatal membranes. […] This assay measures a functional consequence of receptor occupancy at one of the earliest receptor-mediated events. The assay permits for traditional pharmacological parameters of potency, efficacy and antagonist affinity, with the advantage that agonist measures are not subjected to amplification or other modulation that may occur when analyzing parameters further downstream of the receptor.
Thus, striatal tissue was homogenized in 10 volumes of ice cold 25 mM HEPES buffer, pH 7.4, which contained 1 mM EGTA, 100 mM sucrose, 50 μg/ml leupeptin, 0.04 mM PMSF, 2 μg/ml soybean trypsin inhibitor and 0.2% 2-mercaptoethanol. The homogenates were centrifuged at 800×g for 5 minutes and the supernatants were centrifuged at 49,000×g for 20 minutes.
The resultant striatal membrane preparation (200 μg) was admixed and maintained (incubated) at 30° C. for 5 minutes in reaction buffer as above that additionally contained 1 mM MgCl2 and 0.5 nM [^35S]GTPγS (0.1 μCi/assay, PerkinElmer Life and Analytical Sciences) in a total volume of 250 μl and continued for 5 minutes in the absence or presence of 0.1-10 μM of an assayed compound of interest. The reaction was terminated by dilution with 750 μl of ice-cold reaction buffer that contained 20 mM MgCl2 and 1 mM EGTA and immediate centrifugation at 16,000×g for 5 minutes.
Normal rabbit serum (1 μl) was added to 1 ml of lysate and incubated at 25° C. for 30 minutes. Nonspecific immune complexes were removed by incubation with 25 μl of protein A/G-conjugated agarose beads at 25° C. for 30 minutes followed by centrifugation at 5,000×g at 4° C. for 5 minutes. The supernatant was divided and separately incubated at 25° C. for 30 minutes with antibodies raised against Gαo proteins (1:1,000 dilutions).
The immunocomplexes so formed were collected by incubation at 25° C. for 30 minutes with 40 μl of agarose-conjugated protein A/G beads and centrifugation at 5,000×g at 4° C. for 5 minutes. The pellet was washed and suspended in buffer containing 50 mM Tris-HCl, pH 8.0, and 1% NP-40. The radioactivity in the suspension was determined by liquid scintillation spectrometry.

T1 sequence (A0A8I5ZV49 1-2647): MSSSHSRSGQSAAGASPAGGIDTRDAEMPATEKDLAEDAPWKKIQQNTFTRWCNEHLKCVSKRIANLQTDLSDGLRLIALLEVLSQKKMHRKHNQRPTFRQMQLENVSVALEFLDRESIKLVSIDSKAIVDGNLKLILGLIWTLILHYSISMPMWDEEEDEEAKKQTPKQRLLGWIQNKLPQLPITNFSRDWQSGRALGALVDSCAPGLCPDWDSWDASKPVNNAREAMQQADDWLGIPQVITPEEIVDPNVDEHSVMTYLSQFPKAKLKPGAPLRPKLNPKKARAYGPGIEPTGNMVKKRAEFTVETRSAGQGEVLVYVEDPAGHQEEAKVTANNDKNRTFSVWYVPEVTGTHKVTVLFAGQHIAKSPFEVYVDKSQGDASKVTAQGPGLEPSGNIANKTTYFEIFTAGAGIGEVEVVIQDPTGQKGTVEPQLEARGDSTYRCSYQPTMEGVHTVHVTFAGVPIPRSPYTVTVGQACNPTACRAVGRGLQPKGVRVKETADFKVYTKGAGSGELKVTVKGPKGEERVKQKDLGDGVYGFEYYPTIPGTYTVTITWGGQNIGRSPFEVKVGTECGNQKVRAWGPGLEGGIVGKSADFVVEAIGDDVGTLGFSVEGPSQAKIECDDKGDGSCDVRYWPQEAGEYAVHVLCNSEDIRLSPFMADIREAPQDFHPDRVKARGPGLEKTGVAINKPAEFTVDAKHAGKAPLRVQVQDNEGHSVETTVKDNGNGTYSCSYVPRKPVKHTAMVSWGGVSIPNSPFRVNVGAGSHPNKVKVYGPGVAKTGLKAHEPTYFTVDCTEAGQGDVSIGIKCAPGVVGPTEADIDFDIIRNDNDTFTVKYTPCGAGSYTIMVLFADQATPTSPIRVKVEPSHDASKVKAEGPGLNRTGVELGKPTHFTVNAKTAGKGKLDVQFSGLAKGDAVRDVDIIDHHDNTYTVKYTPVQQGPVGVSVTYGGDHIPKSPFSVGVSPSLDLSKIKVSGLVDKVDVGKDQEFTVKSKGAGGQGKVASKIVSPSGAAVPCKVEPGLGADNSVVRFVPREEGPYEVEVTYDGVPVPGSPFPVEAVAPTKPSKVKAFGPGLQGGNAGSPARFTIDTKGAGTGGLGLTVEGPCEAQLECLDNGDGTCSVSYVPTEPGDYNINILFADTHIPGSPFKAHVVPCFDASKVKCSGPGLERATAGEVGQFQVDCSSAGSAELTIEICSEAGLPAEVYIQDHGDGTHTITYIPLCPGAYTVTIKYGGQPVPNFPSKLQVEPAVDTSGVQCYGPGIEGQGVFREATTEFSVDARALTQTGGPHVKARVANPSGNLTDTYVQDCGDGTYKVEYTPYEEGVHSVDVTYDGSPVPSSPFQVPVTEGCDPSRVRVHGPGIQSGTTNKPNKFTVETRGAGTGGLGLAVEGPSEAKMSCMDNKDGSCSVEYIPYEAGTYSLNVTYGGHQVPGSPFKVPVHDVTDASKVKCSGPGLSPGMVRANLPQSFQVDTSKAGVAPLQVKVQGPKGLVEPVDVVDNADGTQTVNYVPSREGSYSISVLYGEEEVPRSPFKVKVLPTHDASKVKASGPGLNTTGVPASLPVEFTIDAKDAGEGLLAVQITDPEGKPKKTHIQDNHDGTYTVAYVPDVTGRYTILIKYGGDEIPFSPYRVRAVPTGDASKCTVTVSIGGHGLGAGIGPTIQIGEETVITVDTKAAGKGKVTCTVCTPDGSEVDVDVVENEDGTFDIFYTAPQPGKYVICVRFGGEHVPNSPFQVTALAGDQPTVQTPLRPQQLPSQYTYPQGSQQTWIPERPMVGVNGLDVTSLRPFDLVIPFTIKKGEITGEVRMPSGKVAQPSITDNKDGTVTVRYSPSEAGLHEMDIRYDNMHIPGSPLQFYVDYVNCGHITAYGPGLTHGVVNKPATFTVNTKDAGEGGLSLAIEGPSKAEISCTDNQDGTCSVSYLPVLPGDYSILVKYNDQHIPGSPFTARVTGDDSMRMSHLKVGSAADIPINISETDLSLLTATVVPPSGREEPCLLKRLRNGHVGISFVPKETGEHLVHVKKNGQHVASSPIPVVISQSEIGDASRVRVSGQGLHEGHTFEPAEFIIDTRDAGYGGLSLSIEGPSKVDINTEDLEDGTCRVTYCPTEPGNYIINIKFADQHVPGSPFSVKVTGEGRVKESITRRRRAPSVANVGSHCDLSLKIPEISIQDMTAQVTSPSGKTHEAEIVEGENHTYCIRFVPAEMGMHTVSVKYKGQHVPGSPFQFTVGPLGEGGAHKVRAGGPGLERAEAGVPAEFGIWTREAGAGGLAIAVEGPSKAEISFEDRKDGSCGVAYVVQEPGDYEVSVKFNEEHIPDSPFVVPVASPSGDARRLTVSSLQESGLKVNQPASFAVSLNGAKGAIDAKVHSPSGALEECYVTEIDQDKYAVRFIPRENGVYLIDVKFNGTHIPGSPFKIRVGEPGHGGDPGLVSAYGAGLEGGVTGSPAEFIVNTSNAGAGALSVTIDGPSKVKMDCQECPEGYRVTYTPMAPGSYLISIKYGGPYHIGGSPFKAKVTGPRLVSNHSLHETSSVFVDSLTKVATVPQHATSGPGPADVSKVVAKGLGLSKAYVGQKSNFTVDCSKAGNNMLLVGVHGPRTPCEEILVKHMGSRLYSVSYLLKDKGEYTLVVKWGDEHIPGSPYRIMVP

C=CCN1CC[C@]23c4c5ccc(O)c4O[C@H]2C(=O)CC[C@]3(O)[C@H]1C5 [(+) NLX, (+)naloxone, reference compound]
Effect on Aβ42-induced α7nAChR-FLNA association (in words) [1]: reduce α7nAChR-FLNA association

CO[C@]12CC[C@@]3(C[C@@H]1C(C)(O)C(C)(C)C)[C@H]1Cc4ccc(O)c5c4[C@@]3(CCN1CC1CC1)[C@H]2O5 (stereo partly shown) [Buprenorphine, reference compound]
Binding to the FLNA pentapeptide of SEQ ID NO: 1 (in words) [2]: bind well

O=S(=O)(c1ccc(OC(F)(F)F)cc1)N1CCOC12CCN(CC1CC1)CC2 [Compound 4]
inhibition at 0.0001 µM [2]: 18.8% | inhibition at 0.001 µM [2]: 21.3% | inhibition at 0.01 µM [2]: 17.9% | inhibition at 0.1 µM [2]: 28.8% | inhibition at 1 µM [2]: 42.9% | MOR agonist activity ([35S]GTPγS binding to Gαo), preliminary study ([3]; 0.1 μM compound as agonist): 133.9% | MOR agonist activity ([35S]GTPγS binding to Gαo), preliminary study ([3]; 1 μM + βNFA): 49.5% | MOR agonist activity ([35S]GTPγS binding to Gαo), preliminary study ([3]; 1 μM compound as agonist): 165.2%

Cc1ccc(S(=O)(=O)N2CCOC23CCN(CC2CCC2)CC3)cc1 [Compound 9]
inhibition at 0.0001 µM [2]: 22.5% | inhibition at 0.001 µM [2]: 24.8% | inhibition at 0.01 µM [2]: 27.7% | inhibition at 0.1 µM [2]: 35.3% | inhibition at 1 µM [2]: 49.6% | MOR agonist activity ([35S]GTPγS binding to Gαo), preliminary study ([3]; 0.1 μM compound as agonist): 156.6% | MOR agonist activity ([35S]GTPγS binding to Gαo), preliminary study ([3]; 1 μM + βNFA): 56.6% | MOR agonist activity ([35S]GTPγS binding to Gαo), preliminary study ([3]; 1 μM compound as agonist): 197.2%

C=CCN1CCC2(CC1)OCCN2S(=O)(=O)c1ccc(C)cc1 [Compound 10]
inhibition at 0.0001 µM [2]: 27.5% | inhibition at 0.001 µM [2]: 27.3% | inhibition at 0.01 µM [2]: 26.6% | inhibition at 0.1 µM [2]: 27.3% | inhibition at 1 µM [2]: 34.5% | MOR agonist activity ([35S]GTPγS binding to Gαo), preliminary study ([3]; 0.1 μM compound as agonist): 163.1% | MOR agonist activity ([35S]GTPγS binding to Gαo), preliminary study ([3]; 1 μM + βNFA): 60.4% | MOR agonist activity ([35S]GTPγS binding to Gαo), preliminary study ([3]; 1 μM compound as agonist): 191.8%

CC1CCC(C(C)C)C(OCC(CN2CC(C)OC(C)C2)NCc2ccccc2)C1 (stereo not shown) [Compound A0033]
Effect on Aβ42-induced α7nAChR-FLNA association (in words) [1]: reduce α7nAChR-FLNA association

CC1CCC(C(C)C)C(OCC(O)CN2CCc3ccccc3C2)C1 (stereo not shown) [Compound A0040]
Effect on Aβ42-induced α7nAChR-FLNA association (in words) [1]: reduce α7nAChR-FLNA association

COc1ccc(OCC(O)CN2CCc3ccccc3C2)cc1 (stereo not shown) [Compound A0053]
Effect on Aβ42-induced α7nAChR-FLNA association (in words) [1]: reduce α7nAChR-FLNA association

CC1CCC(C(C)C)C(OCC(O)CN2CCCc3ccccc32)C1 (stereo not shown) [Compound A0068]
Effect on Aβ42-induced α7nAChR-FLNA association (in words) [1]: reduce α7nAChR-FLNA association

CN1CCC2(CC1)NCC(=O)N2Cc1ccccc1 [Compound C0105M]
MOR agonist activity, [35S]GTPγS binding, FLNA-binding compound as agonist at 0.1 μM ([3]; 0.1 μM compound): 198.1% | MOR agonist activity, [35S]GTPγS binding, 1 μM + BFNA [3]: 73.1% | MOR agonist activity, [35S]GTPγS binding, FLNA-binding compound as agonist at 1 μM ([3]; 1 μM compound): 220.3% | Effect on Aβ42-induced α7nAChR-FLNA association (in words) [1]: reduce α7nAChR-FLNA association

Cc1ccc(S(=O)(=O)N2CCOC23CCN(CC2CC2)CC3)cc1 [Compound C0134M]
MOR agonist activity ([35S]GTPγS binding to Gαo), preliminary study ([3]; 0.1 μM compound as agonist): 150.7% | % DAMGO (0.1 μM) ([3]; 0.1 μM compound, relative to DAMGO): 94.6% | MOR agonist activity, [35S]GTPγS binding, FLNA-binding compound as agonist at 0.1 μM ([3]; 0.1 μM compound): 158.5% | MOR agonist activity ([35S]GTPγS binding to Gαo), preliminary study ([3]; 1 μM + βNFA): 53.2% | MOR agonist activity, [35S]GTPγS binding, 1 μM + BFNA [3]: 46.6% | % DAMGO + BFNA ([3]; 1 μM compound + BFNA, relative to DAMGO + BFNA): 98.1% | MOR agonist activity ([35S]GTPγS binding to Gαo), preliminary study ([3]; 1 μM compound as agonist): 224.0% | % DAMGO (1 μM) ([3]; 1 μM compound, relative to DAMGO): 93.3% | MOR agonist activity, [35S]GTPγS binding, FLNA-binding compound as agonist at 1 μM ([3]; 1 μM compound): 207.3%

CCc1ccc(S(=O)(=O)N2CCOC23CCN(CC2CC2)CC3)cc1 [Compound C0135M]
MOR agonist activity, [35S]GTPγS binding, FLNA-binding compound as agonist at 0.1 μM ([3]; 0.1 μM compound): 161.3% | MOR agonist activity, [35S]GTPγS binding, 1 μM + BFNA [3]: 113.3% | MOR agonist activity, [35S]GTPγS binding, FLNA-binding compound as agonist at 1 μM ([3]; 1 μM compound): 310.1%
